# Source: PubChem BioAssay (NCI)
#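 In this assay, cells in 96-well plates receive the compound at five concentrations for 48 hours. Endpoints are linearly interpolated between the surrounding concentrations. Definition used: TGI = concentration required for complete inhibition of growth.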
# Key:
# Experiment in all cases: inhibition of tumour cell growth, NCI panel, 48 h
# MDA-MB-231 breast = tested on: MDA-MB-231 breast
# CAKI-1 renal = tested on: CAKI-1 renal
# RPMI-8226 leukemia = tested on: RPMI-8226 leukemia
# CCRF-CEM leukemia = tested on: CCRF-CEM leukemia
# U251 CNS = tested on: U251 CNS
# NCI-H226 lung = tested on: NCI-H226 lung
# SK-MEL-28 melanoma = tested on: SK-MEL-28 melanoma
# A498 renal = tested on: A498 renal
# PC-3 prostate = tested on: PC-3 prostate
# MDA-MB-435 = tested on: MDA-MB-435
# HCC-2998 colon = tested on: HCC-2998 colon
# OVCAR-4 ovarian = tested on: OVCAR-4 ovarian
# HOP-92 NSCLC = tested on: HOP-92 NSCLC
# ACHN renal = tested on: ACHN renal
# HS 578T breast = tested on: HS 578T breast
# M14 melanoma = tested on: M14 melanoma
# UACC-62 melanoma = tested on: UACC-62 melanoma
# OVCAR-8 ovarian = tested on: OVCAR-8 ovarian
# HCT-15 colon = tested on: HCT-15 colon
# UO-31 renal = tested on: UO-31 renal
# UACC-257 melanoma = tested on: UACC-257 melanoma
# SR leukemia = tested on: SR leukemia
# T-47D breast = tested on: T-47D breast
# HT29 colon = tested on: HT29 colon
# SF-539 CNS = tested on: SF-539 CNS
# NCI/ADR-RES ovarian = tested on: NCI/ADR-RES ovarian
# NCI-H460 lung = tested on: NCI-H460 lung
# SF-268 CNS = tested on: SF-268 CNS
# OVCAR-3 ovarian = tested on: OVCAR-3 ovarian
# BT-549 breast = tested on: BT-549 breast
# HCT-116 colon = tested on: HCT-116 colon
# COLO 205 colon = tested on: COLO 205 colon
# SF-295 CNS = tested on: SF-295 CNS
# 786-0 renal = tested on: 786-0 renal
# SW-620 colon = tested on: SW-620 colon
# SNB-75 CNS = tested on: SNB-75 CNS
# LOX IMVI melanoma = tested on: LOX IMVI melanoma
# NCI-H23 lung = tested on: NCI-H23 lung
# KM12 colon = tested on: KM12 colon
# HOP-62 NSCLC = tested on: HOP-62 NSCLC
# TK-10 renal = tested on: TK-10 renal
# DU-145 prostate = tested on: DU-145 prostate
# EKVX NSCLC = tested on: EKVX NSCLC
# OVCAR-5 ovarian = tested on: OVCAR-5 ovarian
# MOLT-4 leukemia = tested on: MOLT-4 leukemia
# SK-MEL-5 melanoma = tested on: SK-MEL-5 melanoma
# MDA-N = tested on: MDA-N
# SNB-19 CNS = tested on: SNB-19 CNS
# SK-OV-3 ovarian = tested on: SK-OV-3 ovarian
# NCI-H522 lung = tested on: NCI-H522 lung
# RXF 393 renal = tested on: RXF 393 renal
# SN12C renal = tested on: SN12C renal
# K-562 leukemia = tested on: K-562 leukemia
# HL-60(TB) leukemia = tested on: HL-60(TB) leukemia
# IGROV1 ovarian = tested on: IGROV1 ovarian
# SK-MEL-2 melanoma = tested on: SK-MEL-2 melanoma
# MCF7 breast = tested on: MCF7 breast
# MALME-3M melanoma = tested on: MALME-3M melanoma
# A549 NSCLC = tested on: A549 NSCLC
structure (smiles),measurement,setting,value
NS(=O)(=O)c1ccc(NC(=O)Nc2cccc3ccccc23)cc1,TGI,MDA-MB-231 breast,41.1 µM
same,TGI,CAKI-1 renal,> 100 µM
same,TGI,RPMI-8226 leukemia,> 100 µM
same,TGI,CCRF-CEM leukemia,> 100 µM
same,TGI,U251 CNS,36.2 µM
same,TGI,NCI-H226 lung,52.8 µM
same,TGI,SK-MEL-28 melanoma,> 100 µM
same,TGI,A498 renal,52.2 µM
same,TGI,PC-3 prostate,44 µM
same,TGI,MDA-MB-435,> 100 µM
same,TGI,HCC-2998 colon,> 100 µM
same,TGI,OVCAR-4 ovarian,> 100 µM
same,TGI,HOP-92 NSCLC,> 100 µM
same,TGI,ACHN renal,> 100 µM
same,TGI,HS 578T breast,> 100 µM
same,TGI,M14 melanoma,> 100 µM
same,TGI,UACC-62 melanoma,69.4 µM
same,TGI,OVCAR-8 ovarian,40.6 µM
same,TGI,HCT-15 colon,> 100 µM
same,TGI,UO-31 renal,31.8 µM
same,TGI,UACC-257 melanoma,> 100 µM
same,TGI,SR leukemia,> 100 µM
same,TGI,T-47D breast,> 100 µM
same,TGI,HT29 colon,> 100 µM
same,TGI,SF-539 CNS,50.8 µM
same,TGI,NCI/ADR-RES ovarian,> 100 µM
same,TGI,NCI-H460 lung,> 100 µM
same,TGI,SF-268 CNS,39.3 µM
same,TGI,OVCAR-3 ovarian,> 100 µM
same,TGI,BT-549 breast,> 100 µM
same,TGI,HCT-116 colon,> 100 µM
same,TGI,COLO 205 colon,> 100 µM
same,TGI,SF-295 CNS,> 100 µM
same,TGI,786-0 renal,38 µM
same,TGI,SW-620 colon,> 100 µM
same,TGI,SNB-75 CNS,57.7 µM
same,TGI,LOX IMVI melanoma,> 100 µM
same,TGI,NCI-H23 lung,> 100 µM
same,TGI,KM12 colon,> 100 µM
same,TGI,HOP-62 NSCLC,> 100 µM
same,TGI,TK-10 renal,> 100 µM
same,TGI,DU-145 prostate,81.3 µM
same,TGI,EKVX NSCLC,80.8 µM
same,TGI,OVCAR-5 ovarian,> 100 µM
same,TGI,MOLT-4 leukemia,> 100 µM
same,TGI,SK-MEL-5 melanoma,> 100 µM
same,TGI,MDA-N,> 100 µM
same,TGI,SNB-19 CNS,44.8 µM
same,TGI,SK-OV-3 ovarian,> 100 µM
same,TGI,NCI-H522 lung,34.9 µM
same,TGI,RXF 393 renal,> 100 µM
same,TGI,SN12C renal,> 100 µM
same,TGI,K-562 leukemia,> 100 µM
same,TGI,HL-60(TB) leukemia,> 100 µM
same,TGI,IGROV1 ovarian,> 100 µM
same,TGI,SK-MEL-2 melanoma,> 100 µM
same,TGI,MCF7 breast,> 100 µM
same,TGI,MALME-3M melanoma,> 100 µM
same,TGI,A549 NSCLC,> 100 µM
O=C(NC12CC3CC(CC(C3)C1)C2)n1cnc2c(Cl)ncnc21,TGI,MDA-MB-231 breast,> 100 µM
same,TGI,CAKI-1 renal,> 100 µM
same,TGI,RPMI-8226 leukemia,> 100 µM
same,TGI,CCRF-CEM leukemia,45.7 µM
same,TGI,U251 CNS,92.3 µM
same,TGI,SK-MEL-28 melanoma,> 100 µM
same,TGI,A498 renal,> 100 µM
same,TGI,PC-3 prostate,66.6 µM
same,TGI,MDA-MB-435,40 µM
same,TGI,HCC-2998 colon,38.9 µM
same,TGI,HOP-92 NSCLC,> 100 µM
same,TGI,ACHN renal,50.8 µM
same,TGI,HS 578T breast,97.7 µM
same,TGI,M14 melanoma,50.7 µM
same,TGI,UACC-62 melanoma,> 100 µM
same,TGI,OVCAR-8 ovarian,66.4 µM
same,TGI,HCT-15 colon,> 100 µM
same,TGI,UO-31 renal,> 100 µM
same,TGI,UACC-257 melanoma,> 100 µM
same,TGI,SR leukemia,29 µM
same,TGI,T-47D breast,> 100 µM
same,TGI,HT29 colon,70.3 µM
same,TGI,SF-539 CNS,81.7 µM
same,TGI,NCI/ADR-RES ovarian,> 100 µM
same,TGI,NCI-H460 lung,75.8 µM
same,TGI,SF-268 CNS,57.4 µM
same,TGI,OVCAR-3 ovarian,51.3 µM
same,TGI,BT-549 breast,84.1 µM
same,TGI,HCT-116 colon,> 100 µM
same,TGI,COLO 205 colon,32.6 µM
same,TGI,SF-295 CNS,> 100 µM
same,TGI,786-0 renal,> 100 µM
same,TGI,SW-620 colon,> 100 µM
same,TGI,SNB-75 CNS,73.8 µM
same,TGI,LOX IMVI melanoma,37.9 µM
same,TGI,NCI-H23 lung,65.4 µM
same,TGI,KM12 colon,> 100 µM
same,TGI,HOP-62 NSCLC,> 100 µM
same,TGI,TK-10 renal,> 100 µM
same,TGI,DU-145 prostate,63.9 µM
same,TGI,EKVX NSCLC,71.8 µM
same,TGI,OVCAR-5 ovarian,> 100 µM
same,TGI,MOLT-4 leukemia,52.2 µM
same,TGI,SK-MEL-5 melanoma,53.5 µM
same,TGI,MDA-N,45.9 µM
same,TGI,SNB-19 CNS,> 100 µM
same,TGI,SK-OV-3 ovarian,79.4 µM
same,TGI,NCI-H522 lung,97.5 µM
same,TGI,RXF 393 renal,> 100 µM
same,TGI,SN12C renal,> 100 µM
same,TGI,K-562 leukemia,> 100 µM
same,TGI,HL-60(TB) leukemia,16.9 µM
same,TGI,IGROV1 ovarian,35.4 µM
same,TGI,SK-MEL-2 melanoma,80.7 µM
same,TGI,MCF7 breast,> 100 µM
same,TGI,MALME-3M melanoma,> 100 µM
same,TGI,A549 NSCLC,> 100 µM
